Data taken from PMC11249012 (Journal of Medicinal Chemistry, 2024).
pIC50: −log10 of the molar value.

Biological target: T1, HDAC10 (Homo sapiens, UniProt Q969S8)
T1 sequence (Q969S8 1-669): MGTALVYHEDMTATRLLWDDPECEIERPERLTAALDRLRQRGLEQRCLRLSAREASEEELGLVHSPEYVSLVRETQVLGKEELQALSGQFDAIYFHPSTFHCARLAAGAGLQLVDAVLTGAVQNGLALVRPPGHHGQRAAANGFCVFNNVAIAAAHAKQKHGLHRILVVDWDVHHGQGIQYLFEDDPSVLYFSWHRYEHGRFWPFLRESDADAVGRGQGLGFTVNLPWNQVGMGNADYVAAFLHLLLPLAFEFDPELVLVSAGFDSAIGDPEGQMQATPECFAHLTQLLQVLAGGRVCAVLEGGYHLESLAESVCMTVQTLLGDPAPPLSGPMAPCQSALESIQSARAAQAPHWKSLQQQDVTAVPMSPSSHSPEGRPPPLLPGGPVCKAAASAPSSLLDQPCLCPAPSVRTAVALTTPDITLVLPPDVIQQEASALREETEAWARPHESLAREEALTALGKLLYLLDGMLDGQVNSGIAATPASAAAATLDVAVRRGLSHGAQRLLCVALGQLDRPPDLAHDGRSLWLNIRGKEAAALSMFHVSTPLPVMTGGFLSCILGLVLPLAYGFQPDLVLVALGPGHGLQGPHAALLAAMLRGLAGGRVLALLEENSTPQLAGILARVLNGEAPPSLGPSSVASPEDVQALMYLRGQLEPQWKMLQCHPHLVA
Experiment: Biochemical assay for HDAC inhibition, HDAC10
Conditions: read-out: IC50 HDAC10; Table 1, purified enzyme; unit inferred

pIC50: 8.17
Compound: Cn1cc(CNCC2CCN(c3ncc(C(=O)NO)cn3)CC2)c2ccccc21 [quisinostat]
